In patent US20250388575A1, “HETEROBIFUNCTIONAL COMPOUNDS AND METHODS OF TREATING DISEASE” (Halda Therapeutics OpCo, Inc., priority 2022, published 2025):
Where two headings read alike, the source gives them in different places.

How the values were obtained:
androgen receptor = androgen receptor (Homo sapiens, UniProt P10275); assay: Assay for binding affinity to androgen receptor ([3H]methyltrienolone radioligand, cell cytosol); settings: binding to the androgen receptor, 1 nM [3H]methyltrienolone, 24 hr at 4° C.
Protocol: Fractions of cell cytosol (106 cell/point) were incubated for 24 hr at 4° C. with 1 nM [^3H]methyltrienolone in the absence or presence of the test compound in a buffer containing 25 mM Hepes-Tris (pH 7.4), 1 mM EDTA, 10 mM Na2MoO4, 2 mM DTT, 5 µM triamcinolone acetonide, and 10% glycerol. Nonspecific binding was determined in the presence of 1 μM testosterone. Following incubation, the samples were filtered rapidly under vacuum through glass fiber filters (GF/B, Packard) presoaked with 0.3% PEI and rinsed several times with ice-cold 50 mM Tris-HCl using a 96-sample cell harvester (Unifilter, Packard). The filters were dried then counted for radioactivity in a scintillation counter (Topcount, Packard) using a scintillation cocktail (Microscint 0, Packard). The results are expressed as a percent inhibition of the control radioligand specific binding. The standard reference compound is testosterone, which is tested in each experiment at several concentrations to obtain a competition curve from which its IC50 is calculated.

[1] = system: T-Rex 293 cell line SC3 cells having increased expression of androgen receptor protein; assay: Cellular growth inhibition, T-Rex 293 SC3 cells with increased androgen receptor expression (doxycycline), CellTiter-Glo; type: cell-based; settings: T-Rex 293 SC3 cells with increased androgen receptor expression (exposed to 10 ng/mL doxycycline), 72 hours, CellTiter-Glo; read-out: GI50
Procedure, shortened: (§1)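 SC3, a T-Rex 293 clone with doxycycline-inducible wild-type androgen receptor, was seeded in phenol red-free DMEM with 10% charcoal-dextran FBS, with or without 10 ng/mL doxycycline. Compound added at 24 h (0.5% DMSO) for 72 h at 37° C. CellTiter-Glo 2.0 luminescence; GI50 from four-parameter fit.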

VCaP cells = assay: Cellular growth inhibition assay for VCaP cells, CellTiter-Glo; type: cell-based, human; settings: VCaP cells, 72 hours, CellTiter-Glo, read-out: GI50
Procedure, shortened: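 GI50 values come from four-parameter curve fits of luminescence data normalized to a zero baseline. Compound, in medium with 0.5% DMSO, was added one day after plating and left for 72 h before CellTiter-Glo 2.0 addition.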

[2] = system: T-Rex 293 cell line SC3 cells lacking increased expression of androgen receptor protein; assay: Cellular growth inhibition, T-Rex 293 SC3 cells lacking increased androgen receptor expression (no doxycycline), CellTiter-Glo; type: cell-based; settings: T-Rex 293 SC3 cells lacking increased androgen receptor expression (not exposed to doxycycline), 72 hours, CellTiter-Glo; read-out: GI50
Procedure, shortened: as §1

progesterone receptor = progesterone receptor (Homo sapiens, UniProt P06401); assay: PR Human Progesterone NHR Binding (Agonist Radioligand) Assay, [3H]progesterone, T47D cytosol; settings: 0.5 nM [3H]progesterone, T47D cytosolic fractions, 1 hour at 4° C., legend words it as Kd
Protocol: Compounds were tested using the PR Human Progesterone NHR Binding (Agonist Radioligand) Assay, Cerep at Eurofins Discovery using a modified version of the protocol from Sarup et al. (Cancer Res 1988; 48:5071-5078). Briefly, cytosolic fractions of T47D cells were incubated with 0.5 nM [^3H]progesterone for 1 hour at 4° C. in the absence or presence of the test compound. Nonspecific binding was determined in the presence of 1 μM promegestone. Reactions were subjected to scintillation counting. Results are expressed as a percent inhibition of the control radioligand specific binding.

T47D cells = assay: Cellular growth inhibition assay for T47D cells, CellTiter-Glo; type: cell-based, human; settings: 72 hours treatment, CellTiter-Glo 2.0
Procedure, shortened: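 Luminescence from CellTiter-Glo 2.0 after 72 h of compound exposure gives the viability signal. Cells grew in insulin-supplemented (0.2 units/mL) DMEM with 10% FBS and were treated one day after seeding at 0.5% DMSO. GI50 values come from four-parameter nonlinear regression.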

Chain of androgen receptor (P10275 whole entry, looked up): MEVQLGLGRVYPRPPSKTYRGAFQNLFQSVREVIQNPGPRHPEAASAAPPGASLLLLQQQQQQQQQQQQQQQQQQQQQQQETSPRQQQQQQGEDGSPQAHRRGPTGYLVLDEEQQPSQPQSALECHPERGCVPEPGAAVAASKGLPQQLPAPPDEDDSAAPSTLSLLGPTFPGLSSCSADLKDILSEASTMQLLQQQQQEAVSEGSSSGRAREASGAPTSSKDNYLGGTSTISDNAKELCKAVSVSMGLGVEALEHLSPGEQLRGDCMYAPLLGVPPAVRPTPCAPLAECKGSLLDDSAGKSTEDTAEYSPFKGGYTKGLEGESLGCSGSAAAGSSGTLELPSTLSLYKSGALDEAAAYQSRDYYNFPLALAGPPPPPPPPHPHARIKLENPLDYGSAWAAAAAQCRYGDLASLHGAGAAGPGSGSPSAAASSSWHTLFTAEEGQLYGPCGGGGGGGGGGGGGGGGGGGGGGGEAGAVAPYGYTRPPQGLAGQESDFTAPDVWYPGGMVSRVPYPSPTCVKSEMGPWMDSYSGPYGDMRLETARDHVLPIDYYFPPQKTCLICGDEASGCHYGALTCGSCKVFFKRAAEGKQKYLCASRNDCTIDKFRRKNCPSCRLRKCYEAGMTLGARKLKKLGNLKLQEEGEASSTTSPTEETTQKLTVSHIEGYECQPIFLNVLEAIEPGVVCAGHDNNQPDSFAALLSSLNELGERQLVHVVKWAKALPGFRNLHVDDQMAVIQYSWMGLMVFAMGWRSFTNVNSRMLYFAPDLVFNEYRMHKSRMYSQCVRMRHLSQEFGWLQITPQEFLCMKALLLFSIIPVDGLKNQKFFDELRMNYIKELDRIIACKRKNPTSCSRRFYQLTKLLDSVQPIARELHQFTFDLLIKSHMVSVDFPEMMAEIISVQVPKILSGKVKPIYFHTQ
Chain of progesterone receptor (P06401 whole entry, looked up): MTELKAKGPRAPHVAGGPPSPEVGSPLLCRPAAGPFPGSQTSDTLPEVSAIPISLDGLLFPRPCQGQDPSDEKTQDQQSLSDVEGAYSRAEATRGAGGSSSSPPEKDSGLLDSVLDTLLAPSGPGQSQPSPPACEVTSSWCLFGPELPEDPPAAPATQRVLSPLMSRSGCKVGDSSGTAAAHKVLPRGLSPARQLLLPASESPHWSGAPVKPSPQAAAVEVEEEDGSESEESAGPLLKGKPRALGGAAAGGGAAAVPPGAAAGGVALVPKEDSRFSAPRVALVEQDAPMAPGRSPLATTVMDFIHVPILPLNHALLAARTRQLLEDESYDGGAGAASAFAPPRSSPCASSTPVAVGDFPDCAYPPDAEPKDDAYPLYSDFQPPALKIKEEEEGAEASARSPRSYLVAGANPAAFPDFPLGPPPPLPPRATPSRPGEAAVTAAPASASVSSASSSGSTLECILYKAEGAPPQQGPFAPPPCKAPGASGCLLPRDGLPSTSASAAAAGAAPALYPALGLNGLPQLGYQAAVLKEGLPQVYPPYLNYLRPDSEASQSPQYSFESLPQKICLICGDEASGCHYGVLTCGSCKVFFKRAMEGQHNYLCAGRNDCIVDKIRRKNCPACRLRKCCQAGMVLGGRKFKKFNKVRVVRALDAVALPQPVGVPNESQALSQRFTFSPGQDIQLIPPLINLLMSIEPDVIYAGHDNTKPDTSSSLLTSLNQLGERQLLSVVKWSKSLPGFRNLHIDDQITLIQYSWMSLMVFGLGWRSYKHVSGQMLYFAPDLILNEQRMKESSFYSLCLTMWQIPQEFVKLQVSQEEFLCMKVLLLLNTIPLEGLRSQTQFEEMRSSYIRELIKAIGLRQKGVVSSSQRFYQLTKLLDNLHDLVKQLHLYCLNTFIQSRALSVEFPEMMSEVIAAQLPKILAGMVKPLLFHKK

Ki (progesterone receptor) [nM]	Compound	Kd (androgen receptor) [nM]	GI50 [1] [nM]	GI50 (VCaP cells; Homo sapiens) [nM]	GI50 [2] [nM]	GI50 (T47D cells) [nM]	GI50 (VCaP cells) [nM]
–	CCS(=O)(=O)Nc1ccc(Oc2cccc(OCCOC3CCN(c4ccc(C(=O)N[C@H]5CC[C@H](Oc6ccc(C#N)c(Cl)c6)CC5)cc4)CC3)c2)c(-c2cn(C)c(=O)c3[nH]ccc23)c1 [I-6, N-[4-(3-chloro-4-cyano-phenoxy)cyclohexyl]-4-[4-[2-[3-[4-(ethylsulfonylamino)-2-(6-methyl-7-oxo-1H-pyrrolo[2,3-c]pyridin-4-yl)phenoxy]phenoxy]ethoxy]-1-piperidyl]benzamide]	500 to 2500	< 500	< 500	< 500	–	–
–	CCS(=O)(=O)Nc1ccc(Oc2cccc(OCCOC3CCN(c4ccc(C(=O)N[C@H]5CC[C@H](Oc6ccc(C#N)c(Cl)c6)CC5)cn4)CC3)c2)c(-c2cn(C)c(=O)c3[nH]ccc23)c1 [I-7, N-[4-(3-chloro-4-cyano-phenoxy)cyclohexyl]-6-[4-[2-[3-[4-(ethylsulfonylamino)-2-(6-methyl-7-oxo-1H-pyrrolo[2,3-c]pyridin-4-yl)phenoxy]phenoxy]ethoxy]-1-piperidyl]pyridine-3-carboxamide]	500 to 2500	< 500	< 500	< 500	–	–
–	CCS(=O)(=O)Nc1ccc(Oc2cccc(OCCOC3CCN(c4cnc(C(=O)N[C@H]5CC[C@H](Oc6ccc(C#N)c(Cl)c6)CC5)cn4)CC3)c2)c(-c2cn(C)c(=O)c3[nH]ccc23)c1 [I-8, N-[4-(3-chloro-4-cyano-phenoxy)cyclohexyl]-5-[4-[2-[3-[4-(ethylsulfonylamino)-2-(6-methyl-7-oxo-1H-pyrrolo[2,3-c]pyridin-4-yl)phenoxy]phenoxy]ethoxy]-1-piperidyl]pyrazine-2-carboxamide]	500 to 2500	< 500	< 500	< 500	–	–
–	CCS(=O)(=O)Nc1ccc(Oc2cccc(OCCOC3CCN(c4ccc(C(=O)N[C@H]5CC[C@H](Oc6ccc(C#N)c(Cl)c6)CC5)nc4)CC3)c2)c(-c2cn(C)c(=O)c3[nH]ccc23)c1 [I-9, N-[4-(3-chloro-4-cyano-phenoxy)cyclohexyl]-5-[4-[2-[3-[4-(ethylsulfonylamino)-2-(6-methyl-7-oxo-1H-pyrrolo[2,3-c]pyridin-4-yl)phenoxy]phenoxy]ethoxy]-1-piperidyl]pyridine-2-carboxamide]	500 to 2500	< 500	< 500	< 500	–	–
–	CCS(=O)(=O)Nc1ccc(Oc2cccc(OCCOC3CCN(c4cnc(C(=O)N[C@H]5CC[C@H](Oc6ccc(C#N)c(Cl)c6)CC5)nc4)CC3)c2)c(-c2cn(C)c(=O)c3[nH]ccc23)c1 [I-10, N-[4-(3-chloro-4-cyano-phenoxy)cyclohexyl]-5-[4-[2-[3-[4-(ethylsulfonylamino)-2-(6-methyl-7-oxo-1H-pyrrolo[2,3-c]pyridin-4-yl)phenoxy]phenoxy]ethoxy]-1-piperidyl]pyrimidine-2-carboxamide]	50 to 500	< 500	< 500	> 3000	–	–
500 to 2500	CCS(=O)(=O)Cc1ccc(Oc2cccc(OCCOC3CCN(c4cnc(C(=O)N[C@H]5CC[C@H](Oc6ccc(C#N)c(Cl)c6)CC5)cn4)CC3)c2F)c(-c2cn(C)c(=O)c3[nH]ccc23)c1 [I-28]	50 to 500	< 500	< 500	< 500	–	–
–	Cn1cc(-c2cc(C(C)(C)O)ccc2Oc2ccc(C3CN(c4ccc(C(=O)N[C@H]5CC[C@H](Oc6ccc(C#N)c(Cl)c6)CC5)nn4)C3)cc2)c2cc[nH]c2c1=O [I-104]	< 50	< 500	–	500 to 1500	< 500	< 500
–	Cn1cc(-c2cc(C(C)(C)O)ccc2Oc2ccc(CCC3CCN(c4cnc(C(=O)N[C@H]5CC[C@H](Oc6ccc(C#N)c(Cl)c6)CC5)cn4)CC3)cc2)c2cc[nH]c2c1=O [I-119]	500 to 2500	< 500	–	< 500	< 500	< 500
